Experimental findings from patent US10717742B2, “Spiro[3H-indole-3,2′-pyrrolidin]-2(1H)-one compounds and derivatives as MDM2-P53 inhibitors” (Boehringer Ingelheim International GmbH, priority 2015, dated 2020) are described below.

pIC50: −log10 of the molar value.

For this assay, the target named is p53-MDM2 interaction (GST-MDM2 protein aa 23-117 / biotinylated p53 wt peptide) (Homo sapiens (Human), UniProt Q00987). Kind of assay: Mdm2-p53 Inhibition AlphaScreen. It counts as binding. The settings on record: GST-MDM2 (aa 23-117) / biotinylated p53 wt peptide. The procedure: Mdm2-p53 Inhibition AlphaScreen
p53-MDM2 interaction (GST-MDM2 protein aa 23-117 / biotinylated p53 wt peptide), sequence (Q00987 23-117): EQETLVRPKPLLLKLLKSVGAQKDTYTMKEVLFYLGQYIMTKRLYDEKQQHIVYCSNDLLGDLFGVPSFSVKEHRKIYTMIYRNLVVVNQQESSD
15 μL of compound in 20% DMSO (serial pre-dilutions of compound are done in 100% DMSO) is pipetted to the wells of a white OptiPlate-96 (Perkin Elmer). A mix consisting of 20 nM GST-MDM2 protein (aa 23-117) and 20 nM biotinylated p53 wt peptide (encompassing aa 16-27 of wt human p53, amino acid sequence […]-Ttds-Lys-Biotin, molecular weight 2132.56 g/mol) is prepared in assay buffer (50 mM Tris/HCl pH 7.2; 120 mM NaCl; 0.1% bovine serum albumin (BSA); 5 mM dithiothreitol (DTT); 1 mM ethylenediaminetetraacetic acid (EDTA); 0.01% Tween 20). 30 μL of the mix is added to the compound dilutions and incubated for 15 min at rt while gently shaking the plate at 300 rounds per minute (rpm). Subsequently, 15 μL of premixed AlphaLISA Glutathione Acceptor Beads and AlphaScreen Streptavidin Donor Beads from PerkinElmer (in assay buffer at a concentration of 10 μg/mL each) are added and the samples are incubated for 30 min at rt in the dark (shaking 300 rpm). Afterwards, the signal is measured in a PerkinElmer Envision HIS Multilabel Reader using the AlphaScreen protocol from Perkin Elmer.
Each plate contains negative controls where biotinylated p53-peptide and GST-MDM2 are left out and replaced by assay buffer. Negative control values are entered as low basis value when using the software GraphPad Prism for calculations. Furthermore, a positive control (5% DMSO instead of test compound; with protein/peptide mix) is pipetted. Determination of IC50 values are carried out using GraphPad Prism 3.03 software (or updates thereof).
The term pIC50 denotes the IC50 on a negative log10 scale, so that one unit is a factor of ten. Higher therefore signals a low IC50. `COCCN1[C@H]2CCn3c(nc4cc(C(=O)O)ccc43)[C@H]2[C@H](c2cccc(Cl)c2F)[C@]12C(=O)Nc1cc(Cl)ccc12` [Ib-127]: the negative logarithm of the IC50 (pIC50) is 7.96. With `CC(C)OCCN1[C@H]2CCn3c(nc4cc(C(=O)O)ccc43)[C@H]2[C@H](c2cccc(Cl)c2F)[C@]12C(=O)Nc1cc(Cl)ccc12` [Ib-129], the negative logarithm of the IC50 (pIC50) is 8.00. For the compound `CC(C)(C)OCCN1[C@H]2CCn3c(nc4cc(C(=O)O)ccc43)[C@H]2[C@H](c2cccc(Cl)c2F)[C@]12C(=O)Nc1cc(Cl)ccc12` [Ib-131], the pIC50 is 7.66.

Consider `CS(=O)(=O)CCCN1[C@H]2CCn3c(nc4cc(C(=O)O)ccc43)[C@H]2[C@H](c2cccc(Cl)c2F)[C@]12C(=O)Nc1cc(Cl)ccc12` [Ib-133], for which the negative-log IC50 (pIC50) was 7.24.

In turn, `O=C(O)c1ccc2c(c1)nc1n2CC[C@H]2[C@@H]1[C@H](c1cccc(Cl)c1F)[C@]1(C(=O)Nc3cc(Cl)ccc31)N2CC1CCCC1` [Ib-135] showed a negative-log IC50 (pIC50) of 7.82.

On to `O=C(O)c1ccc2c(c1)nc1n2CC[C@H]2[C@@H]1[C@H](c1cccc(Cl)c1F)[C@]1(C(=O)Nc3cc(Cl)ccc31)N2CC1CCCCC1` [Ib-137], for which the pIC50 was 7.47. The value for `CCOc1cccc(CN2[C@H]3CCn4c(nc5cc(C(=O)O)ccc54)[C@H]3[C@H](c3cccc(Cl)c3F)[C@]23C(=O)Nc2cc(Cl)ccc23)c1` [Ib-139] was 8.40; that for `CCOc1cccc(CN2[C@H]3CCn4c(nc5cc(C(=O)O)ccc54)[C@H]3[C@H](c3cccc(Cl)c3F)[C@]23C(=O)Nc2cc(Cl)ccc23)c1` [Ib-140] was 8.70; that for `CCOc1cccc(CN2[C@@H]3CCn4c(nc5cc(C(=O)O)ccc54)[C@@H]3[C@@H](c3cccc(Cl)c3F)[C@@]23C(=O)Nc2cc(Cl)ccc23)c1` [Ib-141] was 7.32.

The compound `COCc1cccc(CN2[C@H]3CCn4c(nc5cc(C(=O)O)ccc54)[C@H]3[C@H](c3cccc(Cl)c3F)[C@]23C(=O)Nc2cc(Cl)ccc23)c1` [Ib-142] had a pIC50 of 8.52. Then `COc1cccc(CCN2[C@H]3CCn4c(nc5cc(C(=O)O)ccc54)[C@H]3[C@H](c3cccc(Cl)c3F)[C@]23C(=O)Nc2cc(Cl)ccc23)c1` [Ib-144], with 8.10. The value for `O=C(O)c1ccc2c(c1)nc1n2CC[C@H]2[C@@H]1[C@H](c1cccc(Cl)c1F)[C@]1(C(=O)Nc3cc(Cl)ccc31)N2CCC(F)(F)F` [Ib-146] was 7.96. `N#CC12CC(CN3[C@H]4CCn5c(nc6cc(C(=O)O)ccc65)[C@H]4[C@H](c4cccc(Cl)c4F)[C@]34C(=O)Nc3cc(Cl)ccc34)(C1)C2` [Ib-148]: the negative-log IC50 (pIC50) is 7.68. In turn, `CC(C)(C)CN1[C@H]2CCn3c(nc4cc(C(=O)O)ccc43)[C@H]2[C@H](c2cccc(Cl)c2F)[C@]12C(=O)Nc1cc(Cl)ccc12` [Ib-150] gave a negative-log IC50 (pIC50) of 7.70.

On to `N#Cc1ccc2c(c1)NC(=O)[C@]21[C@@H](c2cccc(Cl)c2F)[C@@H]2c3nc4cc(C(=O)O)ccc4n3CC[C@@H]2N1CC1CC1` [Ib-152], for which the pIC50 was 8.15.

As for `O=C(O)c1ccc2nc3n(c2c1)CC[C@H]1[C@@H]3[C@H](c2cccc(Cl)c2F)[C@]2(C(=O)Nc3cc(Cl)ccc32)N1CC1CC1` [Ib-154], the pIC50 is 8.52. For `O=C(O)c1ccc2nc3n(c2c1)CC[C@H]1[C@@H]3[C@H](c2cccc(Cl)c2F)[C@]2(C(=O)Nc3cc(Cl)ccc32)N1CC1CC1` [Ib-155], the pIC50 is 8.70. The value for `O=C(O)c1cccc2nc3n(c12)CC[C@H]1[C@@H]3[C@H](c2cccc(Cl)c2F)[C@]2(C(=O)Nc3cc(Cl)ccc32)N1CC1CC1` [Ib-156] was 8.30; that for `COc1cc2c(cc1C(=O)O)nc1n2CC[C@H]2[C@@H]1[C@H](c1cccc(Cl)c1F)[C@]1(C(=O)Nc3cc(Cl)ccc31)N2CC1CC1` [Ib-157] was 8.70. The value for `O=C(O)c1cc2nc3n(c2cc1OC(F)(F)F)CC[C@H]1[C@@H]3[C@H](c2cccc(Cl)c2F)[C@]2(C(=O)Nc3cc(Cl)ccc32)N1CC1CC1` [Ib-158] was 8.52; that for `Cc1cc2c(cc1C(=O)O)nc1n2CC[C@H]2[C@@H]1[C@H](c1cccc(Cl)c1F)[C@]1(C(=O)Nc3cc(Cl)ccc31)N2CC1CC1` [Ib-159] was 8.15.
